This is an account of results in ChEMBL document CHEMBL1201862, “PubChem BioAssay data set” (2004).

The structures appear in SMILES notation.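 1) Cells in 96-well plates. 2) Compound, 48 h, 5 concentrations. 3) Linear interpolation between surrounding doses. 4) Unreached endpoint = highest concentration. GI50: concentration for 50% inhibition of growth.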 The source made the active and inactive calls. Cut-off read from the data, not from the text of the source: active = GI50 up to about 1.1 µM and inactive = higher. Where only a bound is given, the exact number is not on record here.

Assay in all cases: NCI anticancer screen, dose series, 48 h
Test [1] relates to 786-0.
The subject of test [2] is BT-549.
Test [3] has as its system DU-145.
In test [4] the test system is EKVX.
Test [5] concerns HT-29.
Test [6] deals with K562.
For test [7], the system named is MCF7.
In test [8] the test system is OVCAR-4.
The subject of test [9] is PC-3.
The subject of test [10] is RPMI-8226.
The subject of test [11] is RXF 393.
Test [12] deals with SK-MEL-5.
The test system of test [13] is SNB-75.
In test [14] the test system is SW-620.
Test [15] deals with T47D.
In test [16] the test system is TK-10.
Test [17] has as its system U-251.
Test [18] relates to UACC-62.
The subject of test [19] is UO-31.
In test [20] the test system is A498.

`Cc1ccccc1C(=O)C#Cc1cn(C2CC(O)C(CO)O2)c(=O)[nH]c1=O` (stereo unspecified): the GI50 in test [1] was > 100 µM (inactive); in test [2], > 100 µM (inactive); in test [3], > 100 µM (inactive); in [4], > 100 µM (inactive); in [5], > 100 µM (inactive); in test [6] it was 57 µM (inactive). Moreover, the GI50 in test [7], in [8], in test [9], in test [10], in test [11] and in [12] was > 100 µM (inactive) each time. The GI50 is > 100 µM (inactive) in [13]; > 100 µM (inactive) in [14]; 68.2 µM (inactive) in test [15]; > 100 µM (inactive) in [16]; > 100 µM (inactive) in test [17]; > 100 µM (inactive) in test [18]. Further, in test [19], the GI50 is > 100 µM (inactive).
In the case of `O=C(O)c1ccccc1/C=N\N(CCO)C1=NCCN1`, the GI50 in test [1], in [2], in test [3], in test [4], in test [5] and in test [6] was > 100 µM (inactive) in each case. Besides, the GI50 in test [7], in [8], in test [9], in [10], in test [11] and in test [12] was > 100 µM (inactive) each time. The GI50 in test [13] was 93.1 µM (inactive); in [14], > 100 µM (inactive); in [15], > 100 µM (inactive); in test [16] it was > 100 µM (inactive); in test [17] it was > 100 µM (inactive); in test [18], > 100 µM (inactive). Also, in [19], the GI50 was > 100 µM (inactive).
With `Clc1cccc(-c2sc(-c3cccs3)cc2Cc2cccs2)c1`, the GI50 in [1], in [2], in test [3], in test [4], in [5] and in [6] was > 10 µM (inactive) each time. The GI50 in test [7] is 3.71 µM (inactive); in test [8] it was > 10 µM (inactive); in test [9] it was > 10 µM (inactive); in [10] it was > 10 µM (inactive); in [11], > 10 µM (inactive); in [12] it was > 10 µM (inactive). For the same compound, the GI50 in test [13] was > 10 µM (inactive); in [14] it was > 10 µM (inactive); in test [15] it was 0.74 µM (active); in [16], > 10 µM (inactive); in [18] it was > 10 µM (inactive); in test [19], > 10 µM (inactive).
Take `O=C1CSC(c2ccc([N+](=O)[O-])cc2)N1c1ccc(-n2c(-c3ccccc3)nc3ccccc3c2=O)cc1` (stereo unspecified): the GI50 in test [1] was > 100 µM (inactive); in [20], > 100 µM (inactive); in test [2], 16.7 µM (inactive); in test [3] it was > 100 µM (inactive); in [4], > 100 µM (inactive); in test [5], > 100 µM (inactive). Also, the GI50 in test [6] was 86.9 µM (inactive); in [7], 73.5 µM (inactive); in [8], 21.3 µM (inactive); in test [9], > 100 µM (inactive); in test [10], > 100 µM (inactive); in test [12] it was 82.2 µM (inactive). In addition, the GI50 was > 100 µM (inactive) in test [14]; 22.5 µM (inactive) in test [15]; > 100 µM (inactive) in test [16]; > 100 µM (inactive) in test [17]; 7.98 µM (inactive) in test [18]; 2.56 µM (inactive) in test [19].
For `CCOC(OCC)[C@@H]1C[C@@H]2N(O[C@H](OC3CCCC3(c3ccccc3)c3ccccc3)[C@H](OC(C)=O)[C@@]2(CC)Cc2ccc(OC)c(OC)c2)O1` (stereo partly specified), the GI50 in test [1], in [2], in [3], in test [4], in test [5] and in [6] was > 100 µM (inactive) each time. Also, the GI50 in [7], in [8], in test [9], in test [11], in [12] and in test [13] was > 100 µM (inactive) throughout. Also, the GI50 in test [14], in test [15], in [16], in test [17], in [18] and in test [19] was > 100 µM (inactive) throughout.
In the case of `O=c1ccn(C2OC(CN(O)CCC3C(O)C(CO)OC3n3ccc(=O)[nH]c3=O)C(O)C2O)c(=O)[nH]1` (stereo unspecified), the GI50 in test [1], in test [20], in test [2], in test [3], in [4] and in test [5] was > 100 µM (inactive) each time. Besides, the GI50 in test [6], in test [7], in [8], in test [9], in [10] and in [13] was > 100 µM (inactive) each time. Also, the GI50 in test [15], in test [16], in test [17] and in test [19] was > 100 µM (inactive) each time.
With `CC12C(=O)CC(CC1=O)C2(C)C`, the GI50 in [1], in test [2], in [3], in test [4], in test [5] and in test [6] was > 100 µM (inactive) in each case. Besides, the GI50 in [7], in [8], in test [9], in test [10], in [12] and in test [13] was > 100 µM (inactive) each time. Besides, the GI50 in [14], in [15], in [16], in test [18] and in test [19] was > 100 µM (inactive) each time.
`C[C@H](NC(=O)CNC(=O)CCCCCC(=O)NCC(=O)N[C@@H](C)C(=O)OCc1ccccc1)C(=O)OCc1ccccc1`: the GI50 in test [1], in test [2], in [3], in [4], in [5] and in test [6] was > 100 µM (inactive) throughout. Besides, the GI50 in [7], in test [8], in test [9], in test [10], in test [11] and in [13] was > 100 µM (inactive) throughout. The GI50 in [14], in [15], in test [16], in [17] and in test [18] was > 100 µM (inactive) in each case.
`C[C@@H]1S[C@H](c2ccccc2F)N2Cc3ccccc3N=C12`: the GI50 is 23.4 µM (inactive) in test [1]; 31.3 µM (inactive) in test [2]; 33.7 µM (inactive) in test [3]; 24.8 µM (inactive) in test [4]; 19.5 µM (inactive) in test [5]; 22.9 µM (inactive) in test [6]. Besides, the GI50 is 31.6 µM (inactive) in test [7]; 21 µM (inactive) in test [8]; 22.9 µM (inactive) in [9]; 20.6 µM (inactive) in test [10]; 27.4 µM (inactive) in test [11]; 17 µM (inactive) in [12]. Also, the GI50 in test [13] was 25.6 µM (inactive); in test [14] it was 36.4 µM (inactive); in test [15], 24.1 µM (inactive); in test [16], 36.7 µM (inactive); in test [17], 27.9 µM (inactive); in [18], 19.1 µM (inactive). Also, the GI50 in test [19] is 17.1 µM (inactive).
With `COC1CC(OC2C(C)OC(OC3C(C)OC(OC4C(O)CC(O[C@H]5CC[C@@]6(C)C(=CC[C@]7(O)[C@@H]6C[C@@H](OC(C)=O)[C@@]6(C)[C@]7(O)CC[C@@]6(O)C(C)=O)C5)OC4C)CC3OC)CC2OC)OC(C)C1O` (stereo partly specified), the GI50 in [1], in [2], in test [3], in test [4], in test [5] and in [6] was > 12.5 µM (inactive) each time. In addition, the GI50 in test [7], in test [8], in [9], in test [10], in [12] and in test [13] was > 12.5 µM (inactive) throughout. Also, the GI50 in test [14] was > 12.5 µM (inactive); in test [15], > 12.5 µM (inactive); in test [16] it was > 12.5 µM (inactive); in test [17], > 12.5 µM (inactive); in test [18], > 12.5 µM (inactive); in test [19] it was 5.61 µM (inactive).
For the compound `COc1c(O)c(OC)c2oc(-c3ccc(O)cc3)c(OC)c(=O)c2c1O`, the GI50 in [1] is 17.8 µM (inactive); in test [20], 30.3 µM (inactive); in [2], 43.2 µM (inactive); in test [3], 29.3 µM (inactive); in test [4], 97.5 µM (inactive); in [5] it was 32.4 µM (inactive). The GI50 is 55.6 µM (inactive) in [6]; 41.7 µM (inactive) in test [7]; 48.6 µM (inactive) in test [9]; 56.9 µM (inactive) in test [10]; 17.4 µM (inactive) in test [12]; 34.5 µM (inactive) in test [14]. Further, the GI50 in test [15] is 10.2 µM (inactive); in [16], 61.5 µM (inactive); in test [17] it was 23.9 µM (inactive); in [18], 22.7 µM (inactive); in test [19], 34.7 µM (inactive).
